The conditions of data set [1]: 298.15 K; 101.33 kPa; Liquid.
The nature of data set [2]: excess molar enthalpy (molar enthalpy of mixing); xn = mol fraction of the nth substance listed. The note with it: 298.15 K, 101.3 kPa, Liquid, Flow calorimetry.

Mass density and excess molar enthalpy data for five compounds are collected here from the NIST ThermoML archive (doi:10.1016/j.jct.2004.05.006).

Numbers after ± are expanded uncertainties.

On to `COC(C)(C)C` [2-methoxy-2-methylpropane], for which the mass density in data set [1] came to 735.69 ± 0.73 kg/m3.
Still for that read-out and setting: the same measure for `CCCC(C)C` [2-methylpentane]: 649.78 ± 0.94 kg/m3.
Turning to `CCCC(C)C` [2-methylpentane] + COC(C)(C)C, the excess molar enthalpy in data set [2] (x2 = 0.0532) worked out at 0.00897 ± 0.000335 kcal/mol; in data set [2] (x2 = 0.1063), 0.0214 ± 0.000454 kcal/mol; in data set [2] (x2 = 0.1589) it was 0.0336 ± 0.000574 kcal/mol; in data set [2] (x2 = 0.2113), 0.0437 ± 0.000669 kcal/mol; in data set [2] (x2 = 0.2633) it was 0.0523 ± 0.000765 kcal/mol; in data set [2] (x2 = 0.315), 0.0597 ± 0.000837 kcal/mol. For the same compound, the excess molar enthalpy was determined as 0.065 ± 0.000884 kcal/mol in data set [2] (x2 = 0.3658); 0.0691 ± 0.000932 kcal/mol in data set [2] (x2 = 0.4165); 0.0717 ± 0.000956 kcal/mol in data set [2] (x2 = 0.4667); 0.0725 ± 0.000956 kcal/mol in data set [2] (x2 = 0.5174); 0.0711 ± 0.000956 kcal/mol in data set [2] (x2 = 0.5673); 0.0696 ± 0.000932 kcal/mol in data set [2] (x2 = 0.6165). The excess molar enthalpy turned out to be 0.0659 ± 0.000908 kcal/mol in data set [2] (x2 = 0.6652); 0.0608 ± 0.000837 kcal/mol in data set [2] (x2 = 0.7143); 0.0542 ± 0.000789 kcal/mol in data set [2] (x2 = 0.7628); 0.0462 ± 0.000693 kcal/mol in data set [2] (x2 = 0.81); 0.0376 ± 0.000621 kcal/mol in data set [2] (x2 = 0.8548); 0.0257 ± 0.000502 kcal/mol in data set [2] (x2 = 0.906). The excess molar enthalpy in data set [2] (x2 = 0.9531) was 0.0136 ± 0.000382 kcal/mol.
Turning to `CCCCCCCCCC` [decane], in data set [1], the mass density turned out to be 726.31 ± 0.81 kg/m3.
On the same count and under the same terms, under `CCCCCCCCCCCC` [dodecane] stands 745.38 ± 0.78 kg/m3.

The term mass density denotes the mass of a sample divided by its volume.
